Columns and labels:
[1] = system: AMPK; assay: AMPK activity assay at cell level (western blot of p-AMPKα and p-ACC in MEFs); format: cell-based, mouse; conditions: MEF cells, compound 10 nM, 2 h; multiple of the ratio relative to positive control AICAR (3 mM); band brightness by Image J
Method: The ability of compounds to activate AMPK in mouse embryonic fibroblasts (MEFs) was determined, which could be specifically carried out by detecting the phosphorylation level (p-AMPKα) of threonine at the 172nd position of AMPK and the phosphorylation level (p-ACC) of serine at the 79th position of the susbtrate ACC1/ACC2 of AMPK (FIG. 1 and Table I) by western blot.
The specific method was as follows: • (1) MEFs with loxP insertion sequences or of wild-type were plated in a 6-well plate and cultured in DMEM containing 10% serum. If a gene needed to be knocked out at this time, when the density of the corresponding MEFs with loxP insertion sequences reached about 30%, an adenovirus capable of expressing cre should be added to the culture well followed by further culture for more than 24 h; • (2) When the cell density was close to 90%, the cells were provided with fresh DMEM, at the same time, a compound (final concentration 10 nM) was added to the cells, followed by culture for 2 h, with an equal volume of DMSO as the negative control, and the cells treated with the addition of AICAR (3 mM) as the positive control; • (3) After sucking up the culture solution, the cells were lysed with 200 μL of a cell lysate (its formulation was given below), then the cells were scraped from the culture dish, ultrasonicated, and subjected to low temperature centrifugation at 20000 g for 10 min; • (4) The supernatant and an equal volume of 2*SDS solution (its formulation was given below) were mixed, and subjected to SDS-PAGE in a concentration of 8%, then the protein was transferred to PVDF membrane; each PVDF membrane was blocked with 25 mL of skim milk for 1 h, and then rinsed with TBST buffer (its formulation was given below) 3 times for 10 min each time; • (5) AMPKα subunit primary antibody (Cell Signaling Technology, #2532), primary antibody of phosphothreonine at the 172nd position of AMPK (Cell Signaling Technology, #2535), ACC primary antibody (Cell Signaling Technology, #3662), or primary antibody of phosphoserine at the 79th position of ACC (Cell Signaling Technology, #3661) was diluted in a ratio of 1:1000 with a primary antibody dilution (its formulation was given below), reacted with the PVDF membrane at room temperature for 12 h, and then rinsed 3 times with TBST buffer; • (6) A 1:1000 dilution of HRP-conjugated goat anti-rabbit secondary antibody (Jackson ImmunoResearch, 111-035-003) was added, reacted at room temperature for 1 h, and then rinsed 3 times with TBST buffer; • (7) The PVDF membrane was dried, reacted in an ECL mixture (WesternBright ECL HRP substrate, Advansta) and subjected to exposure with medical X-ray, developed, finally rinsed, dried, and then scanned to obtain data related to AMPK activation.
The formulations of reagents used were: • Cell lysate: 20 mM Tris-base, pH 7.5, 150 mM NaCl, 1 mM EDTA, 1 mM EGTA, 2.5 mM Sodium pyrophosphate, 1 mM β-glycerolphosphate, 1% Triton X-100 (v/v); • 2*SDS solution: 20% Glycerol (v/v), 4% SDS (m/v), 10% β-mecaptoethanol (v/v), 0.01% Bromophenol blue (m/v); • TBST buffer: 4.84% Tris-base (m/v), 8% NaCl (m/v), 0.1% Tween-20 (v/v); • Primary antibody dilution: TBST buffer containing 5% BSA (v/v).

[2] = Liver microsome stability test, human liver microsome; format: in vitro ADME; conditions: 0.5 mg protein/mL microsome, 1 μM compound, 37° C., NADPH, read-out: HLM 0.5 T1/2 (min), half life in human liver microsome
Method: (§1) The experimental steps were as follows: • 1. Preparation of working solution • 1.1 Intermediate solution: 5 μL of a 10 mM stock solution of sample or control was taken out, and diluted with 495 μl of methanol (Conc.: 100 μM, 99% MeOH). • 1.2 Working solution: 50 μL of the intermediate solution was taken out, and diluted with 450 μL of a 100 mM potassium phosphate buffer (Conc.: 10 μM, 9.9% MeOH). • 2. Preparation of NADPH cofactor
(§2) An appropriate amount of NADPH powder was weighed, and dissolved with a MgCl2 (10 mM) solution. • 3. Liver microsome • 3.1 Liver microsome information
(§3) • 3.2 Preparation: a microsome working solution with an appropriate concentration was prepared by using a 100 mM potassium phosphate buffer. • 4. Stop solution
(§4) Glacial acetonitrile, comprising 100 ng/ml Tolbutamide and 100 ng/ml Labetalol as internal standards. • 5. Experimental procedures • 5.1 10 μL of the working solution of sample or control was added per well to all plates (T0, T5, T10, T20, T30, T60, NCF60), except for the blank group; • 5.2 80 μL of the working solution of microsome was added per well to all plates, followed by incubation for 10 min at 37° C.; • 5.3 10 μL of a 100 mM potassium phosphate buffer was added per well to NCF60, followed by incubation at 37° C. and starting timer 1;
(§5) • 5.4 After preheating, 10 μL of NADPH was added per well to each plate, and reaction was started;
(§6) Final concentration of each component in the incubation medium:
(§7) • 5.6 300 μL of the stop solution was added per well to stop the reaction; • 5.7 The system was shaken for about 10 min; • 5.8 The samples were centrifuged (4000 rpm) at 4° C. for 20 min; • 5.9 To 8 new 96-well plates, 300 μL of HPLC water was added per well, then 100 μL of the supernatant was added, mixed and subjected to LC/MS/MS.
(§8) In the above table, HLM 0.5 T1/2 (min) refers to half life (min) of compounds in human liver microsome, DLM 0.5 T1/2 (min) refers to half life (min) of compounds in Beagle dog liver microsome.

[3] = Liver microsome stability test, Beagle dog liver microsome; format: in vitro ADME; conditions: 0.5 mg protein/mL microsome, 1 μM compound, 37° C., NADPH, read-out: DLM 0.5 T1/2 (min), half life in Beagle dog liver microsome
Method: as §1, §2, §3, §4, §5, §6, §7, §8

half-life at 1 μM ([2]; liver microsomes) [min] | half-life at 1 μM ([3]; liver microsomes) [min] | SMILES | Degree of AMPK activation, p-ACC/ACC [1] | Degree of AMPK activation, p-AMPKα/AMPK [1] | half-life at 1 μM ([2]; microsomes) [min] | half-life at 1 μM ([3]; microsomes) [min]
22.3 | 8.5 | Cc1n(CCCCCCCCCCCCCCCCF)cc[n+]1Cc1c(Cl)cccc1Cl.Cl [IA-1] | 0.42 | 1.01 |  | 
 |  | Cc1n(CCCCCCCCCCCC(F)(F)C(F)(F)C(F)(F)F)cc[n+]1Cc1c(Cl)cccc1Cl.[Cl-] [IB-4] | 0.80 | 1.66 | > 145 | > 145
 |  | Cc1n(CCCCCCCCCCCC(F)(F)C(F)(F)C(F)(F)C(F)(F)F)cc[n+]1Cc1c(Cl)cccc1Cl.[Cl-] [IB-16] | 0.77 | 2.28 | > 145 | > 145
 |  | Cc1n(CCCCCCCCCCCC(F)(F)C(F)(F)C(F)(F)C(F)(F)C(F)(F)F)cc[n+]1Cc1c(F)cccc1Cl.[Cl-] [IB-34] | 0.63 | 0.98 | 192 | 110
 |  | Cc1n(CCCCCCCCCCCC(F)(F)C(F)(F)C(F)(F)C(F)(F)C(F)(F)F)cc[n+]1Cc1c(Cl)cccc1Cl.[I-] [IB-38] | 1.34 | 2.06 | > 145 | > 145
 |  | CC(C)c1n(CCCCCCCCCCCC(F)(F)C(F)(F)C(F)(F)C(F)(F)C(F)(F)F)cc[n+]1Cc1c(Cl)cccc1Cl.[Cl-] [IB-41] | 1.49 | 0.94 | 85.3 | 79.7
 |  | FC(F)(F)C(F)(F)C(F)(F)C(F)(F)C(F)(F)CCCCCCCCCCCn1cc[n+](Cc2c(Cl)cccc2Cl)c1C1CC1.[Cl-] [IB-44] | 1.56 | 0.59 | 93 | 127
 |  | Cc1n(CCCCCCCCCCCC(F)(F)C(F)(F)C(F)(F)C(F)(F)C(F)(F)C(F)(F)F)cc[n+]1Cc1c(Cl)cccc1Cl.[Cl-] [IB-50] | 1.09 | 0.65 | > 145 | 122
